Patent US20220031700A1, “Treatment of Acute Respiratory Distress Syndrome (ARDS)” (priority 2020, published 2022)
“Also recorded” adds a separate entry of the source.

Legend:
[1] = system: Influenza-specific antibody; test: Serum influenza-specific antibody by ELISA in experimental influenza model; settings: influenza 6.5 Lg EID50 IN; 100 mg/kg IP QD 12 days; Day 12; compared to influenza-infected/vehicle treated controls
[2] = system: mouse model of cytokine storm; test: Evans Blue dye (EBD) assay of lung after intranasal LPS challenge; type: in vivo
total IgM = test: Serum total IgM by ELISA in experimental influenza model; settings: influenza 6.5 Lg EID50 IN; 100 mg/kg IP QD 12 days; Day 12; compared to influenza-infected/vehicle treated controls
TNF-alpha = test: Plasma TNF-alpha level by ELISA after intranasal LPS challenge; type: in vivo, mouse; settings: Example 2; 100 mg/kg IP, all dosing paradigms; comparison to LPS/vehicle group
Procedure: (§1) Intranasal administration of LPS: The LPS challenge was carried out according to Ma et al. (2019).
(§2) Compound dosing: Animals in groups 2-5 were dosed according to the Table 2 for 6 days. Group 3 animals received 6 doses of MLR-1023 QD and a 7th dose 1 hour prior to LPS. Group 4 animals received 6 doses of MLR-1023 QD and Vehicle 1 hour prior to LPS. Group 5 animals received 6 Vehicle doses QD and 1 dose of MLR-1023 1 hour prior to LPS. On day 7, 1 hour after the last dose, animals were intranasally treated with LPS. Six hours after the instillation of LPS, animals received an IV dose of EBD. Thirty minutes later, animals were sacrificed, and the lungs were collected as previously described.

IL-6 = test: Plasma IL-6 level by ELISA after intranasal LPS challenge; type: in vivo, mouse; settings: Example 2; 100 mg/kg IP, all dosing paradigms; comparison to LPS/vehicle group
Procedure: as §1, §2

in vivo = settings: mouse
[3] = system: mouse model of cytokine storm; test: Lung Wet/Dry ratio assay after intranasal LPS challenge; type: in vivo; settings: LPS 50 μg IN, compared to LPS/Vehicle group
Procedure: Intranasal administration of LPS: The LPS challenge was carried out according to Ma et al., Inflammation, 2019, 42, 1901-1912.
Compound dosing: Animals in groups 2-5 were dosed according to the Table 1 for 6 days. On day 7, 1 hour after the last dose, animals were intranasally treated with LPS. Dexamethasone (20 mg/kg PO) was administered 1 hour prior to LPS treatment. Six hours after the instillation of LPS, animals received an IV dose of EBD. Thirty minutes later, animals were sacrificed, and the lungs were collected as previously described.
as §1, §2

total IgG = test: Serum total IgG by ELISA in experimental influenza model; settings: influenza 6.5 Lg EID50 IN; 100 mg/kg IP QD 12 days; Day 12; compared to influenza-infected/vehicle treated controls

Compound: Cc1cccc(Oc2cnc(=O)[nH]c2)c1 [MLR-1023, tolimidone]
- serum influenza-specific antibody level [1]: did not alter
- Evans Blue content in the lung ([2]; Example 1, C57Bl/6J male mice, LPS 50 μg IN, MLR-1023 30 and 100 mg/kg IP QD 7 days, last dose 1 hr prior to LPS, dexamethasone 20 mg/kg PO 1 hr prior to LPS, compared to LPS/Vehicle group): greater than that of dexamethasone and comparable to that of animals that received no LPS; also recorded: significant dose dependent decrease
- Evans Blue dye content in the lungs (plasma extravasation) ([2]; Example 2, 100 mg/kg IP QD, 6 doses plus acute dose 1 hour before LPS challenge (7×), relative to the 6-dose paradigm): comparable level of reduced plasma extravasation
- Evans Blue dye content in the lungs ([2]; Example 2, 100 mg/kg IP QD, 6 doses, vehicle 1 hr prior to LPS (6×), compared to LPS/Vehicle group): significant decrease
- Evans Blue dye content in the lungs (plasma extravasation) ([2]; Example 2, 100 mg/kg IP, single dose 1 hr prior to LPS challenge (1×)): did not yield reduction
- serum total IgM level (total IgM): did not alter
- plasma TNF-α concentration (TNF-alpha): did not produce significant effects
- plasma IL-6 concentration (IL-6): did not produce significant effects
- half-life (in vivo): ~1.5 h
- wet/dry ratio of the lung ([3]; Example 1, C57Bl/6J male mice, MLR-1023 30 and 100 mg/kg IP QD 7 days, last dose 1 hr prior to LPS, dexamethasone 20 mg/kg PO 1 hr prior to LPS): significant dose dependent decrease
- wet/dry ratio of the lung ([3]; Example 2, 100 mg/kg IP, all dosing paradigms (7×, 6×, 1×)): significant decrease
- serum total IgG level (total IgG): did not alter
